`CC(C)CNC1=NS(=O)(=O)c2sc(Cl)cc2N1` gave a melting point of 262 to 264 °C. Compound `NCC(CN)(CN)CN` has a melting point of 70 °C. Work on `CC(Br)C(=O)NOCc1ccccc1` (stereo unspecified) yielded a melting point of 75.3 to 77.4 °C. Work on `CCCCn1c(=O)c2cc(C(=O)O)cn2c2ccccc21` yielded a melting point of 212 to 214 °C. In the case of `CC(C)(N)[C@H]1CCN(c2c(F)cc3c(=O)c(C(=O)O)cn(C4CC4)c3c2F)C1`, the melting point is reported as 261 to 264 °C. `CN(C)Cc1ccc(CNC(=O)C2Cc3ccccc3N2S(=O)(=O)c2ccc(-c3ccccc3C(F)(F)F)cc2)cc1` (stereo unspecified) gave a melting point of 53 °C. In the case of `CCOC(=O)Cc1ccc(-c2cn3cccnc3n2)cc1`, the melting point is reported as 155 to 158 °C. `C#CCOc1ccc(CCN(OS(C)(=O)=O)C(=O)Cc2ccc(Cl)cc2)cc1OC` showed a melting point of 91 to 93 °C. Work on `CN1C(=O)[C@@H](NC(=O)OC(C)(C)C)CSc2ccccc21` yielded a melting point of 116 to 120 °C. Work on `O=c1cc(-c2ccccc2)oc2ncc(CN3CCCC3)cc12` yielded a melting point of 294 to 296 °C. For `CC(C)(C)Oc1nc2cc(F)c([N+](=O)[O-])cc2[nH]c1=NC#N`, the melting point was 161 to 164 °C. `C=CCN(CC=C)S(=O)(=O)c1ncn(C(=O)N(CC)CC)n1` gave a melting point of 49 to 51 °C. With `CC(C)(C)c1cc(N=C(O)c2cc(C(O)=Nc3cc(C(C)(C)C)c(O)c(C(C)(C)C)c3)c(C(=O)O)cc2C(=O)O)cc(C(C)(C)C)c1O` the melting point was 304 to 306 °C. For `COC(=O)[C@H](CCCO)NC(=O)[C@H](Cc1ccccc1)NC(=O)OCc1ccccc1`, the melting point was 155 to 157 °C. `Cc1ccc2sc3cc(C(=O)O)ccc3c2c1` showed a melting point of 290 to 291 °C. In the case of `Cc1ncccc1C(C#N)N1CCN(C(=O)CC(NC(=O)c2ccc(OCc3ccc4ccccc4n3)cc2)c2ccccc2)CC1` (stereo unspecified), the melting point is reported as 104 to 110 °C. With `CC(=O)N1CCN(c2c(F)c(C)c3c(=O)c(C(=O)O)cn(C4CC4)c3c2F)CC1` the melting point was 217 to 220 °C. Compound `Cc1nc(-c2ccccc2)c(CC(C)C(=O)O)o1` (stereo unspecified) has a melting point of 109 to 110 °C. With `O=c1[nH]c2ccccc2c(=O)n1C1CCCCC1` the melting point was 236 to 238 °C. For `CSc1ccc2cc(Nc3ccc(O)cc3)ccc2c1`, the melting point was 127 to 128 °C. Work on `Cc1nccn1-c1nc(-c2ccc(Cl)cc2)c(CCCC(=O)NCCCl)o1` yielded a melting point of 131 to 132 °C. With `CSc1nc(-c2ccc(Cl)cc2)nc(-c2ccccn2)n1` the melting point was 152 °C. Compound `Cc1cccc(CC(=O)O)c1OCCCc1cn(-c2ccc(C(F)(F)F)cn2)nc1C1CCCCC1` has a melting point of 184 to 185 °C. `Cc1nnc2nc(-c3ccccc3)c3cc([N+](=O)[O-])ccc3n12` showed a melting point of 350 to 352 °C. Work on `[O-][N+]1=Cc2cccc3c2C(C1)c1ccccc1CC3` (stereo unspecified) yielded a melting point of 156 to 158 °C. `Cc1cc(-c2nc3cccnn3c2-c2ccnc(NC(=O)NC(C)C)c2)ccc1F` showed a melting point of 232 to 233 °C. In the case of `CCOC(=O)Cc1nn(C/C=C/c2cccc(C(F)(F)F)c2F)c(=O)c2ccccc12`, the melting point is reported as 104 to 106 °C. `NCC(O)COc1cc([N+](=O)[O-])ccc1N` (stereo unspecified) showed a melting point of 141 °C. With `CC(C)NC(=O)c1ccc(N2CCC(N3C(=O)OCc4ccccc43)CC2)nn1` the melting point was 120 °C. Work on `CCc1nc(Cc2ccc(NC(=O)/C=C/c3cnn(C)c3-c3ccc(F)cc3)cc2)no1` yielded a melting point of 150 to 152 °C. With `CCC(=O)N1CCNC1=Nc1ccc(Cl)cc1Cl` the melting point was 126 to 128 °C. Compound `BrC(c1ccccc1)c1ccc2ccccc2c1` (stereo unspecified) has a melting point of 89 to 90 °C. In the case of `CC(C)(C)n1cc(-c2ccc(I)cc2)c(C#N)c1N`, the melting point is reported as 166 to 167 °C. For `O=C(CCNCc1cc(F)cc(F)c1)Nc1cccc2c1C(=O)c1c(NC(=O)CCNCc3cc(F)cc(F)c3)cccc1C2=O`, the melting point was 190 to 191 °C. `CC(C)(C)NCCCNC(=O)Cn1cnc(-c2ccccc2)c1-c1ccccc1` gave a melting point of 94 to 96 °C. `O=C1CCCc2c1c1cccc(F)c1n2Cc1ccccc1` showed a melting point of 183 to 184 °C. For `COC(=O)Cc1sc(=S)[nH]c1COc1ccccc1`, the melting point was 138 °C. In the case of `Nc1ncnc2c1c(-c1ccc(Oc3ccccc3)cc1)nn2C1CCC(=O)CC1`, the melting point is reported as 203 to 205 °C. For `COc1cc(CCc2ccc(N)cc2)cc(OC)c1OC`, the melting point was 84 to 85 °C. Compound `COc1ccc(C2CCN(C(=O)/C=C/c3ccccc3)CC2)cc1OC1CCCC1` has a melting point of 93 to 95 °C. In the case of `COc1ccc(C(=O)Nc2ccccc2)cc1NS(=O)(=O)c1cc(Cl)cc(Cl)c1`, the melting point is reported as 222 to 228 °C. In the case of `CCCCCCCCC(=O)COS(=O)(=O)c1c(C)c(C)cc(C)c1C`, the melting point is reported as 36 to 37.5 °C. `O=C(c1ccc(F)cc1)C1CCN(Cc2ccc3ccccc3c2)CC1` gave a melting point of 131 to 134 °C. Work on `N#CCNC(=O)C1(NC(=O)c2ccc(N3CCN(Cc4ccccc4)CC3)cc2)CCCCC1` yielded a melting point of 210 to 212 °C. With `N#CCn1nnnc1S` the melting point was 116 to 118 °C. `O=C(Cc1ccc2ccn(C3CCN(CCc4ccc(F)cc4)CC3)c2c1)NCC1OCCO1` showed a melting point of 118 to 119 °C. For `O=C(/C=C/c1ccc(N2CCCCC2)cc1)CC(=O)/C=C/c1ccc2cc[nH]c2c1`, the melting point was 91 to 96 °C. Compound `O=C(CC(O)C(F)(F)F)c1cc(Cl)cc(Cl)c1` (stereo unspecified) has a melting point of 165 to 166 °C. Compound `O=C(O)C(=NO)C(c1ccc(OCc2ccc3ccccc3n2)cc1)c1ccc(OCc2ccc3ccccc3n2)cc1` has a melting point of 183 to 185 °C. `CC(C)=CCC/C(C)=C/CSc1nc2cc(F)c(Cl)cc2[nH]1` gave a melting point of 122 to 124 °C. In the case of `CCC(CC)n1cnc2c(Oc3c(C)cc(C)cc3C)nc(C)cc21`, the melting point is reported as 127 to 131 °C. Compound `CCCCNC(=O)C1CC2(NC(=O)NC2=O)c2cc(F)ccc2O1` (stereo unspecified) has a melting point of 286 to 288 °C. With `CC(=O)c1ccc(S(=O)(=O)NC(C)(C)C(=O)O)cc1` the melting point was 157 to 158 °C. In the case of `CC1(C)C=Cc2c(c3ccccc3n(Cc3ccccc3)c2=O)O1`, the melting point is reported as 91 to 92 °C. In the case of `CCN(CC)CCCC1CCN(CCNC(=O)N2c3ccccc3C(=O)Nc3cccnc32)CC1`, the melting point is reported as 165 to 166 °C. For `O=C(CNc1ccc(O)cc1)N1CCC(Cc2ccc(F)cc2)CC1`, the melting point was 155 to 157 °C. In the case of `CCCc1cn2ccccc2c1C(=O)c1ccc(OS(=O)(=O)c2ccc(C)cc2)cc1`, the melting point is reported as 95 to 97 °C. For `COc1ccc(CC(=O)Nc2c(-c3cc(Cl)ccc3O)c3cc(C(F)(F)F)ccc3[nH]c2=O)cc1`, the melting point was 172 to 175 °C. Work on `CCC1c2cccn2-c2ccc(C(F)(F)F)cc2N1S(=O)(=O)c1ccc(O)cc1` (stereo unspecified) yielded a melting point of 181 to 183 °C. Work on `c1csc(C2NCCNCc3ccccc32)c1` (stereo unspecified) yielded a melting point of 148 °C. In the case of `CCOC(=O)c1cnoc1-c1ccc(Br)cc1`, the melting point is reported as 47 to 48 °C. `C#CC(O)(CO)C(O)c1ncnc2c1ncn2Cc1ccc2c(c1)Nc1nccnc1S2` (stereo unspecified) gave a melting point of 79 to 84 °C. For `COc1cc(C)nc(NC(=O)NS(=O)(=O)c2c(C)nn(C)c2OC)n1`, the melting point was 183 to 184 °C. `CSc1ccccc1C=NO` showed a melting point of 88 to 89 °C. For `NCc1cc(Cl)c(NC(=O)CN2CCN(CCCCC(c3ccc(F)cc3)c3ccc(F)cc3)CC2C(N)=O)c(Cl)c1` (stereo unspecified), the melting point was 161 °C. With `CCCc1nc2ccnn2c(O)c1Cc1ccc(-c2ccccc2C(=O)O)cc1` the melting point was 230 to 240 °C. Work on `Cc1c(C(F)(F)F)n(C)c(=O)n(-c2ccc(Br)cc2F)c1=O` yielded a melting point of 129 to 131 °C. With `Cc1cc2c3c(c1)[nH]c(=O)n3CC(C)NC2` (stereo unspecified) the melting point was 199 °C. Compound `CNc1nc(-c2cccc(-c3cncc(OC)c3)c2)c2cc(OC)c(OC)cc2n1` has a melting point of 225 to 227 °C. Compound `O=[N+]([O-])c1ccc2c(c1)NCc1ccccc1O2` has a melting point of 154 to 156 °C. For `CC(=O)NC[C@H]1CN(c2ccc3c(c2)CC[C@@H](C)N3C=O)C(=O)O1`, the melting point was 89 to 91 °C.

Reference: a melting point compilation (Tetko et al.; mined from patent text by program, amines drawn as free bases though some values may be those of a salt)
